Values of other authors as cited in US8962267B1, “Method for predicting the response of non-small cell lung cancer patients to targeted pharmacotherapy” (Pamgene B.V., priority 2009, dated 2015).

System: NSCLC
Conditions: second-line treatment of NSCLC patients, clinical trials, versus control

| SMILES | overall survival [months] |
| --- | --- |
| CC(=O)O[C@@]12CO[C@@H]1C[C@H](O)[C@@]1(C)C(=O)[C@H](O)C3=C(C)[C@@H](OC(=O)[C@H](O)[C@@H](NC(=O)OC(C)(C)C)c4ccccc4)C[C@@](O)([C@@H](OC(=O)c4ccccc4)[C@H]21)C3(C)C [docetaxal, docetaxel] | 7.5 |
| C#Cc1cccc(Nc2ncnc3cc(OCCOC)c(OCCOC)cc23)c1 [erlotinib] | 6.7 |
| Nc1nc2[nH]cc(CCc3ccc(C(=O)N[C@@H](CCC(=O)O)C(=O)O)cc3)c2c(=O)[nH]1 [pemetrexed] | 8.3 |
